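Growth conditions: 96-well plates. Treatment: test compound, 48 hours, 5 concentrations. Analysis: linear interpolation between bracketing concentrations; unreached endpoints set to highest concentration. The concentration for 50% growth inhibition is given as GI50.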 The source made the active and inactive calls. Cut-off read from the data, not from the text of the source: active = GI50 up to about 1.1 µM and inactive = higher. *1 amine or outer side, *2 acyl side, *3 side chain or, on linkers, in order; H or OH if unused. Where a SMILES comes first, the peptide text is derived from it. The star is where a group is joined. γGlu = O=C(O)[CH](CCC(=O)[*:2])N[*:1]; NHOH = ON*
How the values were obtained:
Experiment in all cases: inhibition of tumour cell growth, NCI panel, 48 h
MDA-MB-231 = system: MDA-MB-231
OVCAR-4 = system: OVCAR-4
PC-3 = system: PC-3
SF-268 = system: SF-268
SK-MEL-28 = system: SK-MEL-28
UACC-257 = system: UACC-257
HCT-15 = system: HCT-15
NCI-H460 = system: NCI-H460
HOP-92 = system: HOP-92
HOP-62 = system: HOP-62
HCC 2998 = system: HCC 2998
SK-OV-3 = system: SK-OV-3
SK-MEL-5 = system: SK-MEL-5
A549 = system: A549
A498 = system: A498
TK-10 = system: TK-10
IGROV-1 = system: IGROV-1
MDA-N = system: MDA-N
RPMI-8226 = system: RPMI-8226
Malme-3M = system: Malme-3M

| Compound | GI50 (MDA-MB-231) | GI50 (OVCAR-4) | GI50 (PC-3) | GI50 (SF-268) | GI50 (SK-MEL-28) | GI50 (UACC-257) | GI50 (HCT-15) [µM] | GI50 (NCI-H460) | GI50 (HOP-92) | GI50 (HOP-62) | GI50 (HCC 2998) | GI50 (SK-OV-3) | GI50 (SK-MEL-5) | GI50 (A549) | GI50 (A498) | GI50 (TK-10) | GI50 (IGROV-1) | GI50 (MDA-N) | GI50 (RPMI-8226) | GI50 (Malme-3M) |
| --- | --- | --- | --- | --- | --- | --- | --- | --- | --- | --- | --- | --- | --- | --- | --- | --- | --- | --- | --- | --- |
| COCN1C(=O)[C@@H]2CCCN2C(=O)c2ccc(N)cc21 | > 100 µM (inactive) | > 100 µM (inactive) | > 100 µM (inactive) | > 100 µM (inactive) | > 100 µM (inactive) | > 100 µM (inactive) | > 100 | > 100 µM (inactive) | > 100 µM (inactive) | > 100 µM (inactive) | > 100 µM (inactive) | > 100 µM (inactive) | > 100 µM (inactive) | > 100 µM (inactive) | > 100 µM (inactive) | > 100 µM (inactive) | > 100 µM (inactive) | > 100 µM (inactive) | > 100 µM (inactive) |  |
| C/C=C(\C)[C@@H](O)C(=O)O[C@@H]1CC(C(C)(C)O)[C@](C)(CCC(=O)OC)[C@H]2[C@H](OC(=O)[C@H](O)[C@H](C)CC)C[C@]3(C)C(=CC[C@H]3[C@H]3CO[C@H](C=C(C)C)C3)[C@]12C (stereo not given in full) | 19.6 µM (inactive) | 19.8 µM (inactive) | 16.7 µM (inactive) | 18.5 µM (inactive) | 21.6 µM (inactive) | 20.7 µM (inactive) | 19 | 18.5 µM (inactive) | 23.3 µM (inactive) | 35.3 µM (inactive) | 16.2 µM (inactive) |  | 17.4 µM (inactive) | 20.9 µM (inactive) | 22.4 µM (inactive) | 24.2 µM (inactive) | 30.8 µM (inactive) | 20 µM (inactive) | 15.3 µM (inactive) |  |
| O=C1CSC2(CC(/C=C/c3ccccc3)=NN2c2cccc(S(=O)(=O)O)c2)N1c1nc2ccccc2s1 (stereo not given) | 24.5 µM (inactive) | 20.9 µM (inactive) | 25.6 µM (inactive) |  | 62.4 µM (inactive) | 60 µM (inactive) | 32.6 | 26.3 µM (inactive) | 21.7 µM (inactive) |  | 59.4 µM (inactive) |  | 44.6 µM (inactive) | 32.8 µM (inactive) | 26 µM (inactive) | 19.5 µM (inactive) | 16.1 µM (inactive) | 35.2 µM (inactive) | 24.6 µM (inactive) | 69.7 µM (inactive) |
| COC1(OC)C2C=CC1C([C@](C)(N)CO)C2 (stereo not given in full) | > 100 µM (inactive) | > 100 µM (inactive) | > 100 µM (inactive) | > 100 µM (inactive) | > 100 µM (inactive) | > 100 µM (inactive) |  | > 100 µM (inactive) | > 100 µM (inactive) | > 100 µM (inactive) | > 100 µM (inactive) | > 100 µM (inactive) | > 100 µM (inactive) | > 100 µM (inactive) | > 100 µM (inactive) | > 100 µM (inactive) | > 100 µM (inactive) | > 100 µM (inactive) |  | > 100 µM (inactive) |
| COc1cc(O)c2c(=O)c(O)c(-c3ccc(O)c(OC)c3)oc2c1 [RHAMNAZIN] | 5.57 µM (inactive) | 2.48 µM (inactive) | 11 µM (inactive) | 1.89 µM (inactive) |  | > 100 µM (inactive) | > 19.6 | 2.64 µM (inactive) | 0.838 µM (active) |  | 7.6 µM (inactive) |  |  | > 22.9 µM (inactive) | 2.73 µM (inactive) | > 100 µM (inactive) | > 100 µM (inactive) | 4.8 µM (inactive) | 5.98 µM (inactive) | > 100 µM (inactive) |
| OC[C@H]1CCCC1O (stereo not given in full) | > 100 µM (inactive) | > 100 µM (inactive) | > 100 µM (inactive) | > 100 µM (inactive) | > 100 µM (inactive) | > 100 µM (inactive) | > 100 | > 100 µM (inactive) | > 100 µM (inactive) |  | > 100 µM (inactive) |  | > 100 µM (inactive) | > 100 µM (inactive) | > 100 µM (inactive) | > 100 µM (inactive) | > 100 µM (inactive) | > 100 µM (inactive) | > 100 µM (inactive) | > 100 µM (inactive) |
| O=C1/C(=C/c2ccc(Cl)cc2)CCC/C1=C\c1ccc(O)c(CN2CCCCC2)c1 | 26.9 µM (inactive) | 20 µM (inactive) | 8.91 µM (inactive) |  | 21 µM (inactive) | 17.8 µM (inactive) | 12.2 | 19.5 µM (inactive) | 18.5 µM (inactive) | 39 µM (inactive) | 20.2 µM (inactive) | 24 µM (inactive) | 15.1 µM (inactive) | 27.2 µM (inactive) | 14.6 µM (inactive) | 29.2 µM (inactive) | 15.5 µM (inactive) | 12.9 µM (inactive) |  | 21.4 µM (inactive) |
| CNc1ccc2nc(-c3ccc(OC(=O)N(C)C)cc3)cn2c1 | 17.1 µM (inactive) | 17.5 µM (inactive) | 16 µM (inactive) | 16.5 µM (inactive) | 45.8 µM (inactive) | 50.4 µM (inactive) | 19.5 | 17.5 µM (inactive) | 22.6 µM (inactive) | 18.8 µM (inactive) | 30.1 µM (inactive) | 19 µM (inactive) | 23.1 µM (inactive) | 16.9 µM (inactive) | 17.5 µM (inactive) | 17.9 µM (inactive) | 17.9 µM (inactive) | 19.2 µM (inactive) |  | 54.3 µM (inactive) |
| Cc1csc(-c2cn(C)c3c2C(=O)C(=N)C=C3O)n1 | 51.6 µM (inactive) | > 100 µM (inactive) | 7.01 µM (inactive) | 15.8 µM (inactive) | 20.3 µM (inactive) | 4.26 µM (inactive) | 6.59 | 3.97 µM (inactive) | > 100 µM (inactive) | 6.89 µM (inactive) | 5 µM (inactive) | 21.2 µM (inactive) | 1.53 µM (inactive) | 2.65 µM (inactive) | 12.2 µM (inactive) | 46.1 µM (inactive) | 2.31 µM (inactive) | 14.1 µM (inactive) | 2.83 µM (inactive) |  |
| NC(CCC(=O)NC(CCC(=O)NO)C(=O)NCC(=O)O)C(=O)O (stereo not given) (γGlu-Glu(NHOH)-Gly-OH; configuration not given here) | > 100 µM (inactive) | > 100 µM (inactive) | > 100 µM (inactive) | > 100 µM (inactive) | > 100 µM (inactive) | > 100 µM (inactive) | > 100 | > 100 µM (inactive) | > 100 µM (inactive) | > 100 µM (inactive) | > 100 µM (inactive) | > 100 µM (inactive) | > 100 µM (inactive) | > 100 µM (inactive) | > 100 µM (inactive) | > 100 µM (inactive) | > 100 µM (inactive) | > 100 µM (inactive) | > 100 µM (inactive) |  |
| CNC(=O)Oc1ccc(-c2cn3cc(OC(=O)NC)ccc3n2)cc1 | > 100 µM (inactive) | 51.1 µM (inactive) | 49.9 µM (inactive) | 19.3 µM (inactive) | 92.7 µM (inactive) | > 100 µM (inactive) | 36.1 | 39.4 µM (inactive) | > 100 µM (inactive) | 80.4 µM (inactive) | 49.3 µM (inactive) | > 100 µM (inactive) | 26.7 µM (inactive) | 44.1 µM (inactive) | 66.4 µM (inactive) | 91.6 µM (inactive) | 54 µM (inactive) | 32.8 µM (inactive) | 19.8 µM (inactive) |  |
| CCOC(=O)NC(Nc1ccc(C(=O)O)cc1)(C(F)(F)F)C(F)(F)F | > 100 µM (inactive) |  | > 100 µM (inactive) | > 100 µM (inactive) | > 100 µM (inactive) | > 100 µM (inactive) | > 100 | > 100 µM (inactive) | > 100 µM (inactive) | > 100 µM (inactive) | > 100 µM (inactive) | > 100 µM (inactive) | > 100 µM (inactive) | > 100 µM (inactive) | > 100 µM (inactive) | > 100 µM (inactive) | > 100 µM (inactive) | > 100 µM (inactive) | > 100 µM (inactive) | > 100 µM (inactive) |
| COC(=O)c1c(C(=O)OC)c2ccc(-c3ccc(Cl)cc3)nn2c1C(=O)c1ccc([N+](=O)[O-])cc1 | > 100 µM (inactive) | 42.3 µM (inactive) | > 100 µM (inactive) | 44.7 µM (inactive) | > 100 µM (inactive) | > 100 µM (inactive) | 25.2 | > 100 µM (inactive) | 10.8 µM (inactive) | > 100 µM (inactive) | > 100 µM (inactive) | > 100 µM (inactive) | 52.1 µM (inactive) | > 100 µM (inactive) | > 100 µM (inactive) | 28.1 µM (inactive) |  | 66.2 µM (inactive) | 16.7 µM (inactive) |  |
| O=C1OC(=O)C2=C1C(c1cccs1)C=C(c1cccnc1)N2c1ccncc1 (stereo not given) | 19.9 µM (inactive) | 20 µM (inactive) | 12.2 µM (inactive) | 16.6 µM (inactive) | 24.3 µM (inactive) | 12.3 µM (inactive) | 14.2 | 17.3 µM (inactive) | 12.8 µM (inactive) | 15.8 µM (inactive) | 14.1 µM (inactive) | 24.9 µM (inactive) | 17.4 µM (inactive) | 17.6 µM (inactive) | 18.7 µM (inactive) | 17 µM (inactive) | 13.8 µM (inactive) | 17.8 µM (inactive) | 13 µM (inactive) |  |
| CSc1c(C#N)c2n(c3ccccc13)c1ccccc1[n+]2C | 20.7 µM (inactive) | 59.3 µM (inactive) | 26.7 µM (inactive) | 28.5 µM (inactive) | 23.9 µM (inactive) | 19.7 µM (inactive) | 33.4 | 26.4 µM (inactive) | 33.5 µM (inactive) | 23.1 µM (inactive) | 27.9 µM (inactive) |  | 11.9 µM (inactive) | 24.1 µM (inactive) | 21 µM (inactive) | 21.1 µM (inactive) | 33.2 µM (inactive) | 26.2 µM (inactive) | 17.3 µM (inactive) | 16 µM (inactive) |

From ChEMBL document CHEMBL1201862, “PubChem BioAssay data set” (2004)
